Results taken from PubChem BioAssay (NCI).
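How tested: cells in 96-well plates exposed to compound for 48 hours at five concentrations. GI50 marks 50% less growth. The concentration for full growth arrest is given as TGI.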 Where a SMILES comes first, the peptide text is derived from it. [ ]: non-standard residue; d: D form. ξ: configuration not given here. ξ2Thi = NC(Cc1cccs1)C(=O)O; ξR = N=C(N)NCCCC(N)C(=O)O; ξI = CCC(C)C(N)C(=O)O; ξL = CC(C)CC(N)C(=O)O; ξK = NCCCCC(N)C(=O)O; ξT = CC(O)C(N)C(=O)O; ξA = CC(N)C(=O)O

Assays:
Test in all cases: NCI tumour cell line growth inhibition, 48 h
PC-3 prostate = tested on: PC-3 prostate
UACC-257 melanoma = tested on: UACC-257 melanoma
CCRF-CEM leukemia = tested on: CCRF-CEM leukemia
HT29 colon = tested on: HT29 colon
RPMI-8226 leukemia = tested on: RPMI-8226 leukemia
MDA-MB-231 breast = tested on: MDA-MB-231 breast
SNB-19 CNS = tested on: SNB-19 CNS
EKVX NSCLC = tested on: EKVX NSCLC
MALME-3M melanoma = tested on: MALME-3M melanoma
NCI/ADR-RES ovarian = tested on: NCI/ADR-RES ovarian
DU-145 prostate = tested on: DU-145 prostate
NCI-H23 lung = tested on: NCI-H23 lung
MDA-MB-435 = tested on: MDA-MB-435
LOX IMVI melanoma = tested on: LOX IMVI melanoma
UO-31 renal = tested on: UO-31 renal
HCT-15 colon = tested on: HCT-15 colon
K-562 leukemia = tested on: K-562 leukemia
U251 CNS = tested on: U251 CNS
NCI-H226 lung = tested on: NCI-H226 lung
SK-MEL-28 melanoma = tested on: SK-MEL-28 melanoma
SK-OV-3 ovarian = tested on: SK-OV-3 ovarian
SW-620 colon = tested on: SW-620 colon
UACC-62 melanoma = tested on: UACC-62 melanoma
SF-539 CNS = tested on: SF-539 CNS
HCC-2998 colon = tested on: HCC-2998 colon
KM12 colon = tested on: KM12 colon
ACHN renal = tested on: ACHN renal
786-0 renal = tested on: 786-0 renal
SF-295 CNS = tested on: SF-295 CNS
OVCAR-3 ovarian = tested on: OVCAR-3 ovarian
SK-MEL-5 melanoma = tested on: SK-MEL-5 melanoma
BT-549 breast = tested on: BT-549 breast
OVCAR-4 ovarian = tested on: OVCAR-4 ovarian
OVCAR-5 ovarian = tested on: OVCAR-5 ovarian
HCT-116 colon = tested on: HCT-116 colon
SK-MEL-2 melanoma = tested on: SK-MEL-2 melanoma
NCI-H460 lung = tested on: NCI-H460 lung
TK-10 renal = tested on: TK-10 renal
HOP-92 NSCLC = tested on: HOP-92 NSCLC
A498 renal = tested on: A498 renal
SNB-75 CNS = tested on: SNB-75 CNS
OVCAR-8 ovarian = tested on: OVCAR-8 ovarian
HL-60(TB) leukemia = tested on: HL-60(TB) leukemia
SN12C renal = tested on: SN12C renal
MOLT-4 leukemia = tested on: MOLT-4 leukemia
RXF 393 renal = tested on: RXF 393 renal
MCF7 breast = tested on: MCF7 breast
T-47D breast = tested on: T-47D breast
COLO 205 colon = tested on: COLO 205 colon
IGROV1 ovarian = tested on: IGROV1 ovarian
M14 melanoma = tested on: M14 melanoma
A549 NSCLC = tested on: A549 NSCLC

Structure (SMILES): Nc1ccc2c(c1)C(=O)C(=O)c1c-2nc2ccccn12
- GI50 (PC-3 prostate): 1780 nM
- TGI (PC-3 prostate): 10500 nM
- GI50 (UACC-257 melanoma): 1080 nM
- TGI (UACC-257 melanoma): 2280 nM
- GI50 (CCRF-CEM leukemia): 1770 nM
- TGI (CCRF-CEM leukemia): 5270 nM
- GI50 (HT29 colon): 3970 nM
- TGI (HT29 colon): 34900 nM
- GI50 (RPMI-8226 leukemia): 1800 nM
- TGI (RPMI-8226 leukemia): 4710 nM
- GI50 (MDA-MB-231 breast): 1750 nM
- TGI (MDA-MB-231 breast): 4960 nM
- GI50 (SNB-19 CNS): 1640 nM
- TGI (SNB-19 CNS): 3230 nM
- GI50 (EKVX NSCLC): 2040 nM
- TGI (EKVX NSCLC): 4520 nM
- GI50 (MALME-3M melanoma): 271 nM
- TGI (MALME-3M melanoma): 572 nM
- GI50 (NCI/ADR-RES ovarian): 1850 nM
- TGI (NCI/ADR-RES ovarian): 5980 nM
- GI50 (DU-145 prostate): 556 nM
- TGI (DU-145 prostate): 1790 nM
- GI50 (NCI-H23 lung): 576 nM
- TGI (NCI-H23 lung): 3050 nM
- GI50 (MDA-MB-435): 186 nM
- TGI (MDA-MB-435): 352 nM
- GI50 (LOX IMVI melanoma): 327 nM
- TGI (LOX IMVI melanoma): 1330 nM
- GI50 (UO-31 renal): 1280 nM
- TGI (UO-31 renal): 2640 nM
- GI50 (HCT-15 colon): 427 nM
- TGI (HCT-15 colon): 1870 nM
- GI50 (K-562 leukemia): 1090 nM
- TGI (K-562 leukemia): 3880 nM
- GI50 (U251 CNS): 1280 nM
- TGI (U251 CNS): 2580 nM
- GI50 (NCI-H226 lung): 1720 nM
- TGI (NCI-H226 lung): 3750 nM
- GI50 (SK-MEL-28 melanoma): 1260 nM
- TGI (SK-MEL-28 melanoma): 2640 nM
- GI50 (SK-OV-3 ovarian): 2640 nM
- TGI (SK-OV-3 ovarian): 7620 nM
- GI50 (SW-620 colon): 1800 nM
- TGI (SW-620 colon): 3830 nM
- GI50 (UACC-62 melanoma): 266 nM
- TGI (UACC-62 melanoma): 782 nM
- GI50 (SF-539 CNS): 1660 nM
- TGI (SF-539 CNS): 3030 nM
- GI50 (HCC-2998 colon): 2220 nM
- TGI (HCC-2998 colon): 4090 nM
- GI50 (KM12 colon): 2130 nM
- TGI (KM12 colon): 6800 nM
- GI50 (ACHN renal): 1220 nM
- TGI (ACHN renal): 2460 nM
- GI50 (786-0 renal): 2240 nM
- TGI (786-0 renal): 4860 nM
- GI50 (SF-295 CNS): 1530 nM
- TGI (SF-295 CNS): 2890 nM
- GI50 (OVCAR-3 ovarian): 1260 nM
- TGI (OVCAR-3 ovarian): 3070 nM
- GI50 (SK-MEL-5 melanoma): 178 nM
- TGI (SK-MEL-5 melanoma): 329 nM
- GI50 (BT-549 breast): 1490 nM
- TGI (BT-549 breast): 2820 nM
- GI50 (OVCAR-4 ovarian): 1230 nM
- TGI (OVCAR-4 ovarian): 2490 nM
- GI50 (OVCAR-5 ovarian): 1920 nM
- TGI (OVCAR-5 ovarian): 3570 nM
- GI50 (HCT-116 colon): 1040 nM
- TGI (HCT-116 colon): 2290 nM
- GI50 (SK-MEL-2 melanoma): 1680 nM
- TGI (SK-MEL-2 melanoma): 3700 nM
- GI50 (NCI-H460 lung): 561 nM
- TGI (NCI-H460 lung): 3120 nM
- GI50 (TK-10 renal): 15300 nM
- TGI (TK-10 renal): 29300 nM
- GI50 (HOP-92 NSCLC): 2000 nM
- TGI (HOP-92 NSCLC): 4210 nM
- GI50 (A498 renal): 1570 nM
- TGI (A498 renal): 3370 nM
- GI50 (SNB-75 CNS): 1040 nM
- TGI (SNB-75 CNS): 2280 nM
- GI50 (OVCAR-8 ovarian): 1290 nM
- TGI (OVCAR-8 ovarian): 3230 nM
- GI50 (HL-60(TB) leukemia): 1960 nM
- TGI (HL-60(TB) leukemia): 5460 nM
- GI50 (SN12C renal): 1080 nM
- TGI (SN12C renal): 2480 nM
- GI50 (MOLT-4 leukemia): 1960 nM
- TGI (MOLT-4 leukemia): 4880 nM
- GI50 (RXF 393 renal): 1600 nM
- TGI (RXF 393 renal): 2990 nM
- GI50 (MCF7 breast): 1060 nM
- TGI (MCF7 breast): 3070 nM
- GI50 (T-47D breast): 1760 nM
- TGI (T-47D breast): 4130 nM
- GI50 (COLO 205 colon): 10800 nM
- TGI (COLO 205 colon): 26600 nM
- GI50 (IGROV1 ovarian): 1520 nM
- TGI (IGROV1 ovarian): 3550 nM
- GI50 (M14 melanoma): 281 nM
- TGI (M14 melanoma): 741 nM
- GI50 (A549 NSCLC): 1620 nM
- TGI (A549 NSCLC): 3540 nM

Structure (SMILES): CCC(C)C(NC(=O)C(Cc1cccs1)NC(=O)C(CC(C)C)NC(=O)C(CC(C)C)NC(=O)C(CCCCN)NC(=O)C(CCCN=C(N)N)NC(=O)[C@H](Cc1ccc(O)cc1)NC(=O)C(NC(=O)C(C)NC(=O)C(N)CC(C)C)C(C)O)C(=O)NC(CC(C)C)C(N)=O (stereo partly drawn) (H-[ξL][ξA][ξT]Y[ξR][ξK][ξL][ξL][ξ2Thi][ξI][ξL]-NH2)
- TGI (UACC-257 melanoma): > 50000 nM
- TGI (NCI-H23 lung): > 50000 nM
- TGI (NCI-H226 lung): > 50000 nM
- TGI (BT-549 breast): > 50000 nM
